Test results reported in patent US9458104B2 (priority 2012, dated 2016).

Tests used:
[1] = target: T1, RORγ ligand binding domain (LBD) (Homo sapiens, UniProt P51449); experiment: TR-FRET Activity Assay (ligand sensing assay, RORγ-LBD / coactivator peptide interaction); type: biochemical
T1 construct: made in house; host or cells: E. coli BL-21 (BL3), vector pDEST15
T1 sequence (P51449 269-508 limits assumed): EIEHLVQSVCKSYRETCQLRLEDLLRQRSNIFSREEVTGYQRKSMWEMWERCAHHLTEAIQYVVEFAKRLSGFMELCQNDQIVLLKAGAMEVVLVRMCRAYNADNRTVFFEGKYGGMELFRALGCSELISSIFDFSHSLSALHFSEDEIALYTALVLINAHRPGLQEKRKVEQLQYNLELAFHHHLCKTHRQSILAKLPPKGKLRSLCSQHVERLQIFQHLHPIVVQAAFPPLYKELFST
Excerpt: This method measures the ability of putative ligands to modulate the interaction between the purified bacterial expressed RORγ ligand binding domain (LBD) and synthetic N-terminally biotinylated peptides which are derived from nuclear receptor coactivator proteins such as but not limited to SRC1 (NcoA1), SRC2 (NcoA2, TIF2), SRC3 (NcoA3), PGC1α, PGC1β, CBP, GRIP1, TRAP220, RIP140.
The ligand-binding domain (LBD) of RORγ was expressed as fusion protein with GST in […] cells using the vector pDEST15. Cells were lysed by lysozyme-treatment and sonication, and the fusion proteins purified over glutathione sepharose (Pharmacia) according to the manufacturers instructions. For screening of compounds for their influence on the RORγ-peptide interaction, the LANCE technology (Perkin Elmer) was applied. This method relies on the binding dependent energy transfer from a donor to an acceptor fluorophor attached to the binding partner of interest. For ease of handling and reduction of background from compound fluorescence LANCE technology makes use of generic fluorophore labels and time resolved detection assays were done in a final volume of 25 μL in a 384 well plate, in a Tris-based buffer system (20 mM Tris-HCl pH6.8; 60 mM KCl, 1 mM DTT; 5 mM MgCl2; 35 ng/μL BSA), containing 20-60 ng/well recombinantly expressed RORγ-LBD fused to GST, 200-600 nM N-terminally biotinylated peptide, 200 ng/well Streptavidin-xIAPC conjugate (Prozyme) and 6-10 ng/well Eu W1024-antiGST (Perkin Elmer). DMSO content of the samples was kept at 1%.
After generation of the Tris-based buffer system, the potentially RORγ modulating ligands were diluted. […] The LANCE signal was detected by a Perkin Elmer EnVision™ Multilabel Counter. The results were visualized by plotting the ratio between the emitted light at 665 nm and 615 nm. […] Ligands that promote the complex formation induce a concentration-dependent increase in time-resolved fluorescent signal.
To assess the antagonistic potential of the compounds, IC50 values were determined using a Ligand Sensing Assay based on Time-resolved Fluorescence Energy Transfer (TR-FRET) as described above. The normalised TR-FRET assay values, using the following equation: 1000*665 nm measurement value/615 nm measurement value, were transferred to the program GraphPad Prism to generate graphs and dose response curves using the following equation: […]
This is identical to the “four parameter logistic equation”. The IC50 values are calculated using this equation. […] Is is understood that the data illustrated below may have reasonable variation depending on the specific conditions and procedures used by the person conducting the test.

[2] = target: T2, RORγ (UniProt P51449); type: cell-based; settings: 293T cells, 16 h; for pIC50 (FF): firefly (FF) luciferase; for pIC50 (REN): renilla normalised (RENnorm) luciferase
T2 construct: hRORg-LBD|aa259-518|NP_005051.2; hRORgt|aa1-497|NP_001001523 (RORg, t isoform, 497aa); mRORg-LBD|aa264-516|NP_035411
T2 sequence (P51449 1-518): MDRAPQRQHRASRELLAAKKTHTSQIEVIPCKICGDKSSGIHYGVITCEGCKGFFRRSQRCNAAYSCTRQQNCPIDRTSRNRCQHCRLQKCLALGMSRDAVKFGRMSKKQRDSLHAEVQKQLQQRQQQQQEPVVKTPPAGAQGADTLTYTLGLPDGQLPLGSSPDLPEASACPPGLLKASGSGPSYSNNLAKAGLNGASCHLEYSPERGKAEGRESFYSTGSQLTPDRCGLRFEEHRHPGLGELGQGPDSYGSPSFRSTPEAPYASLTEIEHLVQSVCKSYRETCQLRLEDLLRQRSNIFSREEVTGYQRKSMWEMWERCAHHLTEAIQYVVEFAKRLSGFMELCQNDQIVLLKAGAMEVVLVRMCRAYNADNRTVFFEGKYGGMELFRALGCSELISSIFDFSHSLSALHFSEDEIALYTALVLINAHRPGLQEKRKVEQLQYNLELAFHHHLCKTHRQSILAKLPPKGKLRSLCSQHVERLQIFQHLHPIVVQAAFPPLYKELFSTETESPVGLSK
Procedure: Determination of a ligand mediated Gal4 promoter driven transactivation to quantify ligand binding to RORγ was performed as follows: DNA encoding three different RORγ. protein fragments was cloned into vector pCMV-BD (Stratagene). Expression was under control of a CMV promoter and as fusion to the DNA-binding domain of the yeast protein GAL4. Other vectors used were pFR-Luc (Stratagene) as regulated reporter plasmid. pFR-Luc contains a synthetic promoter with five tandem repeats of the yeast GAL4 binding sites that control expression of the Photinus pyralis (American firefly) luciferase gene. In order to improve experimental accuracy the plasmid pRL-CMV was cotransfected. pRL-CMV contains the constitutive CMV promoter, controlling the expression of the Renilla reniformis luciferase.
All Gal4 reporter gene assays were done in 293T cells (DSMZ (German Collection of Microorganisms and Cell Cultures), Braunschweig, Germany, ACC635) grown in Minimum Essential Medium (MEM) with Phenol Red. The medium is supplemented with 10% fetal bovine serum, 0.1 mM nonessential amino acids, 1 mM sodium pyruvate, 1% Glutamax and 100 units Penicilin/[…] per mL at 37° C. in 5% CO2.
For the assay, […] were plated per well in 96 well plates in 100 μL per well, incubated over night at 37° C. in 5% CO2. The following day, medium was discarded and the cells were transiently transfected using 20 μL per well of a OptiMEM—PEI-based transfection-reagent (Sigma-Aldrich, 408727) including the three plasmids described above. About 4 h after addition of the transfection solution, fresh Minimal Essential Medium (MEM, same composition as used for plating cells, but without serum) was added. Then compound stocks, prediluted in MEM (same composition as used for plating cells) were added (final vehicle concentration not exceeding 0.1%).
All experiments were done at least in triplicates.
It is understood that the data illustrated below may have reasonable variation depending on the specific conditions and procedures used by the person conducting the test.

Compound	IC50 [1] [nM]	pIC50 (FF) [2]	pIC50 (REN) [2]
Cc1c(C(=O)NCCC(C)(C)C(=O)O)cn(-c2cc(C(C)(C)C)cc(C3(C)CC3)c2)c1CC1CCCCC1 [1/4]	398	7.2	7.2
Cc1c(C(=O)N[C@H]2C[C@H](C(=O)O)C2)cn(-c2cc(C(C)(C)C)cc(C3(C)CC3)c2)c1CC1CCCCC1 [1/5]	1000	7.6	8.0
Cc1c(C(=O)NC2CCOCC2)cn(-c2ccc(S(=O)(=O)NC(C)(C)C)c(C(C)(C)C)c2)c1CC1CCCCC1 [4/2]	631	7.3	7.5
Cc1c(C(=O)NC2CCOCC2)cn(-c2ccc(S(=O)(=O)NC(C)(C)C)c(C(F)(F)F)c2)c1CC1CCCCC1 [4/3]	398	7.6	7.6
Cn1c(C(=O)NC2CCOCC2)cc(-c2ccc(S(=O)(=O)NC(C)(C)C)c(C(C)(C)C)c2)c1CC1CCCCC1 [8/2]	398	7.1	7.3
Cn1c(C(=O)NC2CCOCC2)cc(-c2cc(C(C)(C)C)cc(C3(C)CC3)c2)c1CC1CCCCC1 [8/3]	501	7.1	7.3
Cn1c(C(=O)N[C@H]2C[C@H](C(=O)O)C2)cc(-c2ccc(S(=O)(=O)NC(C)(C)C)c3ccccc23)c1CC1CCCCC1 [8/4]	1000	7.7	–
Cn1c(C(=O)NCC2(O)CCS(=O)(=O)CC2)cc(-c2ccc(S(=O)(=O)NC(C)(C)C)c3ccccc23)c1CC1CCCCC1 [8/5]	1000	7.6	7.6
Cn1c(C(=O)NC2CCS(=O)(=O)CC2)cc(-c2ccc(S(=O)(=O)NC(C)(C)C)c3ccccc23)c1CC1CCCCC1 [8/6]	501	7.8	7.9
Cn1c(C(=O)NCC(C)(C)O)cc(-c2ccc(S(=O)(=O)NC(C)(C)C)c3ccccc23)c1CC1CCCCC1 [8/7]	501	7.8	7.9
Cn1c(C(=O)NC23CCC(C(=O)O)(CC2)CC3)cc(-c2ccc(S(=O)(=O)NC(C)(C)C)c3ccccc23)c1CC1CCCCC1 [8/8]	2000	8.4	8.4
Cn1c(C(=O)NCCC(C)(C)C(=O)O)cc(-c2cc(C(C)(C)C)cc(C3(C)CC3)c2)c1CC1CCCCC1 [8/10]	794	7.4	7.5
Cn1c(C(=O)N[C@H]2C[C@H](C(=O)O)C2)cc(-c2ccc(S(=O)(=O)NC(C)(C)C)c3ccccc23)c1C(=O)C1CCCCC1 [26/2]	–	7.0	7.2
Cn1c(C(=O)NCC(C)(C)O)cc(-c2ccc(S(=O)(=O)NC(C)(C)C)c3ccccc23)c1C(=O)C1CCCCC1 [26/3]	–	7.5	7.8
Cn1c(C(=O)NC2CCS(=O)(=O)CC2)cc(-c2ccc(S(=O)(=O)NC(C)(C)C)c3ccccc23)c1C(=O)C1CCCCC1 [26/4]	–	7.7	7.8
Cn1c(C(=O)NCC(C)(C)O)cc(-c2cc(C(C)(C)C)cc(C3(C)CC3)c2)c1C(=O)C1CCCCC1 [Example 26/1]	–	7.8	7.9
CC(C)(C)c1cc(-n2nc(C(=O)N[C@H]3C[C@H](C(=O)O)C3)cc2OC2CCCCC2)cc(C2(C)CC2)c1 [Example 110, trans-3-(1-(3-(tert-Butyl)-5-(1-methylcyclopropyl)phenyl)-5-(cyclohexyloxy)-1H-pyrazole-3-carboxamido)cyclobutanecarboxylic acid]	–	nt/6.5/6.5	nt/6.5/6.5
CC(C)(C)c1cc(-n2nc(C(=O)N[C@H]3C[C@H](C(=O)O)C3)c(Cl)c2OC2CCCCC2)cc(C2(C)CC2)c1 [Example 111, trans-3-(1-(3-(tert-Butyl)-5-(1-methylcyclopropyl)phenyl)-4-chloro-5-(cyclohexyloxy)-1H-pyrazole-3-carboxamido)cyclobutanecarboxylic acid]	–	7.3	7.5
CC(C)(C)c1cc(-n2nc(C(=O)NC3CCOCC3)c(Cl)c2OC2CCCCC2)cc(C2(C)CC2)c1 [Example 111/1]	–	nt/6.6/6.6	nt/6.6/6.6
CC(C)(C)NS(=O)(=O)c1ccc(-c2c(Cl)c(C(=O)NC34CCC(C(=O)O)(CC3)CC4)nn2CC2CCCCC2)c(Cl)c1Cl [Example 113, 4-(5-(4-(N-(tert-Butyl)sulfamoyl)-2,3-dichlorophenyl)-4-chloro-1-(cyclohexylmethyl)-1H-pyrazole-3-carboxamido)bicyclo[2.2.2]octane-1-carboxylic acid]	–	7.5	7.6
CC(C)(C)NS(=O)(=O)c1ccc(-n2nc(C(=O)N[C@H]3C[C@H](C(=O)O)C3)c(Cl)c2CC2CCCCC2)c2ccccc12 [Example 114, (trans)-3-(1-(4-(N-(tert-Butyl)sulfamoyl)naphthalen-1-yl)-4-chloro-5-(cyclohexyl-methyl)-1H-pyrazole-3-carboxamido)cyclobutanecarboxylic acid]	–	nt/6.8/6.8	nt/6.8/6.8
CC(C)(C)NS(=O)(=O)c1ccc(-n2nc(C(=O)NC3CCS(=O)(=O)CC3)c(Cl)c2CC2CCCCC2)c2ccccc12 [Example 114/1]	–	6.9	7.0
Cc1c(C(=O)NC2CCS(=O)(=O)CC2)nc(-c2ccc(S(=O)(=O)NC(C)(C)C)c3ccccc23)n1CC1CCCCC1 [Example 320, 2-(4-(N-(tert-Butyl)sulfamoyl)naphthalen-1-yl)-1-(cyclohexylmethyl)-N-(1,1-dioxidotetrahydro-2H-thiopyran-4-yl)-5-methyl-1H-imidazole-4-carboxamide]	–	5.9	6.0
